# Calls of active or inactive are those of the source.
# Key:
# [1] = target: T1, Corticotropin-releasing factor receptor 2/Corticotropin-releasing factor-binding protein (Homo sapiens, UniProt P24387+Q13324); experiment: activators of CRF receptor 2 with binding protein – uHTS hits, confirmation (AID 602473); assay type: functional; conditions: read-out: EC50_Mean
# T1 sequence (Q13324 whole entry): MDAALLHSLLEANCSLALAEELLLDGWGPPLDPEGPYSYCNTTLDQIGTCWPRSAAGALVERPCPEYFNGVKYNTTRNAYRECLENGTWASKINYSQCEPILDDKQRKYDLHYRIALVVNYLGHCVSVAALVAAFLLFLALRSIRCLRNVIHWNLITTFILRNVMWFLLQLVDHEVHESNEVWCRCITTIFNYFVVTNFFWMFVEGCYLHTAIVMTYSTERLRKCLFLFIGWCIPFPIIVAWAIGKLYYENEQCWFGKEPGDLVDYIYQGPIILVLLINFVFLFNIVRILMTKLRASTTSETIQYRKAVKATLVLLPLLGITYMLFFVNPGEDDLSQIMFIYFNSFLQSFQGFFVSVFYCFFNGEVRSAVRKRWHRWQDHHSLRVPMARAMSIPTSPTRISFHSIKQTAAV
# T1 sequence (P24387 whole entry): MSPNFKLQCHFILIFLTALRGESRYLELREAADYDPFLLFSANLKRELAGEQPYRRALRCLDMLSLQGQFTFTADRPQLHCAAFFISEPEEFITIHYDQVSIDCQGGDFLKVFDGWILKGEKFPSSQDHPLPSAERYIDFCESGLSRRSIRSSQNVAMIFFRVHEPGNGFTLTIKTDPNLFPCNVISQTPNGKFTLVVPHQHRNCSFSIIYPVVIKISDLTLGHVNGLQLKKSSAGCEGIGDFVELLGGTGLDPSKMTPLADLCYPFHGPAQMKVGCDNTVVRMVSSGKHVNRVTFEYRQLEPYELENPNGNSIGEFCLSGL
# Cytochrome P450 2C9 = Cytochrome P450 2C9 (Homo sapiens, UniProt P11712)
# [2] = target: T1, Corticotropin-releasing factor receptor 2/Corticotropin-releasing factor-binding protein; experiment: Dose Response confirmation of uHTS hits for small molecule antagonists of the CRF-binding protein and CRF-R2 receptor complex.; assay type: functional; conditions: read-out: IC50_Mean
# Cytochrome P450 1A2 = target: T2, Cytochrome P450 1A2 (Homo sapiens, UniProt P05177);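 note: PubChem cytochrome P450 panel assay, CYP1A2 panel member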
# T2 sequence (P05177 whole entry): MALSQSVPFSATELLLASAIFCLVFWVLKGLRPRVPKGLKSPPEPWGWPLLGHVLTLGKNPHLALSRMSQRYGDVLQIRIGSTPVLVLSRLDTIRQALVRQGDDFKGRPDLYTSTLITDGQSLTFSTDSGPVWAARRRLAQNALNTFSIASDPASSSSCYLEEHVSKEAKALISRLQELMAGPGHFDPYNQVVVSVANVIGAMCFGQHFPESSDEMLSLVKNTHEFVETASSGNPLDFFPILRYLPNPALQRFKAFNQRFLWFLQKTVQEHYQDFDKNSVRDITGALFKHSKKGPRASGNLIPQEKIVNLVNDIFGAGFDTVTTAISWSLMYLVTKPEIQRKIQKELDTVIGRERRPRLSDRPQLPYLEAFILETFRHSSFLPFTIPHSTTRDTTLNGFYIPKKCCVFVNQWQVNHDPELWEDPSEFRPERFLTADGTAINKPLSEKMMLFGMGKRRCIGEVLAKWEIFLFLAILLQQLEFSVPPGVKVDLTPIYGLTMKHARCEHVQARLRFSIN
# cells [3] = assay type: functional, cell-based
# cells [4] = assay type: functional, cell-based; remark: listed apart in the source
# [5] = target: FAD-linked sulfhydryl oxidase ALR (Homo sapiens, UniProt P55789); experiment: ALR-catalysed DTT oxidation blockers – biochemical, H2O2 detection, luminescence, cherry-pick, dose response (AID 493248)
# Large T antigen = Large T antigen (Simian virus 40, UniProt P03070); assay type: functional, Betapolyomavirus macacae;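 note: Confirmatory-stage PubChem screen for compounds that inhibit SV40 T antigen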
# Cytochrome P450 2C19 = Cytochrome P450 2C19 (Homo sapiens, UniProt P33261); experiment: Cytochrome panel assay with activity outcomes. Panel member name: p450-cyp2c19 Compounds with AC50 equal or less than 10 uM are considered active; assay type: functional; conditions: read-out: AC50
# Cytochrome P450 2D6 = Cytochrome P450 2D6 (Homo sapiens, UniProt P10635);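 note: CYP2D6 member of a cytochrome P450 panel assay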
# Cytochrome P450 2D6, sequence (P10635 whole entry): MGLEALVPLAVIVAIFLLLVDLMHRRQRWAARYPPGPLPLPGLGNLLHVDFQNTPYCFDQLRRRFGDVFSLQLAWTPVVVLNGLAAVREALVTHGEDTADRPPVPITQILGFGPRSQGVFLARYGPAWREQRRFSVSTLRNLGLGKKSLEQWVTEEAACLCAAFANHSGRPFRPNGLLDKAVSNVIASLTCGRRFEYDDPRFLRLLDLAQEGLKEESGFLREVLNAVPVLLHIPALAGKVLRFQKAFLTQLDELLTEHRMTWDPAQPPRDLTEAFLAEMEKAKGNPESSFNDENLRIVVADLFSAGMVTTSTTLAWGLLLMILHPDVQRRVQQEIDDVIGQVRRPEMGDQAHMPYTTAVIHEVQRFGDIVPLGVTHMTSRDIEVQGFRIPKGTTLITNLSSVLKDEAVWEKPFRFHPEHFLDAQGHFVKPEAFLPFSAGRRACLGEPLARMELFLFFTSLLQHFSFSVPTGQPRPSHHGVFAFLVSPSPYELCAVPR
# Cytochrome P450 2C9, sequence (P11712 whole entry): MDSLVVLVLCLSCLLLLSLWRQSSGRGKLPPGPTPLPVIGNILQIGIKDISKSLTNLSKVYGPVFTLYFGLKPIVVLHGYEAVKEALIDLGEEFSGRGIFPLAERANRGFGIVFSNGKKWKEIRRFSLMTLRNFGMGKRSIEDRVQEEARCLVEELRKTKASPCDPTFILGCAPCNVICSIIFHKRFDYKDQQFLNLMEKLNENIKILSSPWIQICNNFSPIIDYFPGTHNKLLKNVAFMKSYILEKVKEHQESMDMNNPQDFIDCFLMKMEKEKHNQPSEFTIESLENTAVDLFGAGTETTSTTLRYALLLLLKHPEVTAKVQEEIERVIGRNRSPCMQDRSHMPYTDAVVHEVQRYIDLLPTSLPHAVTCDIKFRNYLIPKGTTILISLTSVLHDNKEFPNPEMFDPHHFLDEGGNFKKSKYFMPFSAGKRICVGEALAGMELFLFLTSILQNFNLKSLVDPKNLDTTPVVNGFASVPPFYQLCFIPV
# FAD-linked sulfhydryl oxidase ALR, sequence (P55789 whole entry): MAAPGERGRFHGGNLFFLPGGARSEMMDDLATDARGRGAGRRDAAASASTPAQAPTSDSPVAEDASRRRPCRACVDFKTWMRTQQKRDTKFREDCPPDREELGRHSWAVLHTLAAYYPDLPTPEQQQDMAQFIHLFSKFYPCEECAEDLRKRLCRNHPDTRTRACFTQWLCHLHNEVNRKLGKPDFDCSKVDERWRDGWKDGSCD
# Large T antigen, sequence (P03070 whole entry): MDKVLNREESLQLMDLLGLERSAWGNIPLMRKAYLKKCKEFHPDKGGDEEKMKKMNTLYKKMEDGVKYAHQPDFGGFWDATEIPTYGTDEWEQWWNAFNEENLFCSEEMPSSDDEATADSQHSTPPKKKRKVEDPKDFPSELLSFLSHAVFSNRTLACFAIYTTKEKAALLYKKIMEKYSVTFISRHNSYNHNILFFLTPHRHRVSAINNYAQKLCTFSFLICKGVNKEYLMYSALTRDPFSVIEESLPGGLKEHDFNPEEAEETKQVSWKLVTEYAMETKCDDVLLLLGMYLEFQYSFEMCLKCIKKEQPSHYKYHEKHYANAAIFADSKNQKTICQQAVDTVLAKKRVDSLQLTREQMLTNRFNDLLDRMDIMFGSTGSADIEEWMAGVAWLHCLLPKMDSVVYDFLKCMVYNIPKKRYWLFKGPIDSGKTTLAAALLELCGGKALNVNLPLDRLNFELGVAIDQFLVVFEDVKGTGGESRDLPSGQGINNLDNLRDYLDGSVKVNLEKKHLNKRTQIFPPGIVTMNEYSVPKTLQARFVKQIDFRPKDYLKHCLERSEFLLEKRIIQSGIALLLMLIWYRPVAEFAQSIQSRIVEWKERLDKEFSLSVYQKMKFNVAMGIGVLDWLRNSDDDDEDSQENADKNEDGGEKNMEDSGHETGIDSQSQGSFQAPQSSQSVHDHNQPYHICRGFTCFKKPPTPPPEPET
# Cytochrome P450 2C19, sequence (P33261 whole entry): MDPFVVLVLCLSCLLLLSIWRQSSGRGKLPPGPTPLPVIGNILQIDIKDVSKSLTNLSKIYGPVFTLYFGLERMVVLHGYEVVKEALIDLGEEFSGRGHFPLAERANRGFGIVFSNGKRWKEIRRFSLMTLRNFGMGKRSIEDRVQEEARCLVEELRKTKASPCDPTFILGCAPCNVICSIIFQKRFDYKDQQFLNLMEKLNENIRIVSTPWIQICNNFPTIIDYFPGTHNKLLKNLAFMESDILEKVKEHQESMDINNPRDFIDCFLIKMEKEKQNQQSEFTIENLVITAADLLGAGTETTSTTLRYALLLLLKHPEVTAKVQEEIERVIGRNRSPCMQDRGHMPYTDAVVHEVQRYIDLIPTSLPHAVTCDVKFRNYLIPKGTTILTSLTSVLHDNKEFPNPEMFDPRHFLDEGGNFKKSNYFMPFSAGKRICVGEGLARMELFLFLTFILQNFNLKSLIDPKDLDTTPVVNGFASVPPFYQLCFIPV
compound,measurement,setting,value
COc1ccccc1OCC(=O)NNC(=O)c1cnccn1,EC50,[1],> 53 µM (inactive)
same,AC50,Cytochrome P450 2C9,inconclusive
same,IC50,[2],> 47.1 µM (inactive)
same,AC50,Cytochrome P450 1A2,17.8 µM (inconclusive)
COc1ccc(/C=N/NC(=O)c2ccccc2O)cc1CSc1ccccn1,EC50,cells [3],> 350 µM (not active)
same,EC50,cells [4],> 350 µM (not active)
c1ccc(-n2cnc3cc(NCc4ccccn4)ccc32)cc1,AC50,[5],1.17 µM (active)
COc1ccc(C(=O)Nc2ccc(Cl)cn2)cc1Cl,AC50,Cytochrome P450 2C9,inconclusive
C=CCNC(=O)c1onc(CSc2cc(C)ccc2C)c1C(=O)O,AC50,[5],4.81 µM (active)
O=C(O)c1ccccc1C(=O)Nc1ccc(-c2csc(-c3ccccc3)n2)cc1,AC50,[5],0.218 µM (active)
COc1ccc(Nc2nc(N/N=C/c3ccc(N(C)C)cc3)nc(C)c2[N+](=O)[O-])cc1,EC50,cells [3],> 350 µM (not active)
same,EC50,cells [4],> 350 µM (not active)
COc1ccc(OC)c2nc(O)c(CCNC(=O)COc3ccccc3)cc12,AC50,Cytochrome P450 2C9,inconclusive
O=C(NCc1ccccc1)C(=O)c1cn(CC(=O)N2CCOCC2)c2ccccc12,EC50,cells [3],> 350 µM (not active)
same,EC50,cells [4],> 350 µM (not active)
COc1ccc(C2(C)NC(=O)NC2=O)cc1OC (stereo unspecified),EC50,cells [3],> 350 µM (not active)
same,EC50,cells [4],116 µM (active)
COc1cccc(OCc2cc(C(=O)N3CCN(c4ccccc4OC)CC3)no2)c1,EC50,cells [3],> 350 µM (not active)
same,EC50,cells [4],66.7 µM (active)
Cc1nnc(Nc2ccc(O)cc2)nc1O,IC50,Large T antigen,33 µM (active)
Cn1c(=O)c2cc(S(=O)(=O)NCCC(=O)N3CC=C(c4ccccc4)CC3)ccc2n(C)c1=O,AC50,Cytochrome P450 2C19,25.1 µM (inconclusive)
same,AC50,Cytochrome P450 2D6,17.8 µM (inconclusive)
same,AC50,Cytochrome P450 2C9,inconclusive
same,AC50,Cytochrome P450 1A2,31.6 µM (inconclusive)
O=C(O)C1CSC(c2coc3ccccc3c2=O)N1 (stereo unspecified),AC50,[5],0.083 µM (active)
O=C(O)c1cscc1Cc1cccs1,AC50,Cytochrome P450 2C9,inconclusive
COC(=O)CNc1c(-c2ccccc2)nc2ccc(Br)cn12,AC50,[5],1.08 µM (active)
COC(=O)[C@H](CCSC)NC(=O)C/C=C\[C@@H](C)CO,AC50,Cytochrome P450 2C9,inconclusive
CCNc1ncc2ncc(=O)n(C3CC3)c2n1,AC50,Cytochrome P450 2C9,inconclusive
COc1cccc(C2=NOC(C(=O)Nc3ccc(OC)c(OC)c3)C2)c1 (stereo unspecified),AC50,Cytochrome P450 2C19,25.1 µM (inconclusive)
same,AC50,Cytochrome P450 2C9,inconclusive
CN1CCC2(CC1)N=C(c1ccc(F)cc1)C(=S)N2C(=O)c1ccc(C(C)(C)C)cc1,EC50,cells [3],> 350 µM (not active)
same,EC50,cells [4],73.9 µM (active)
NS(=O)(=O)c1ccc(-c2ccc(C=C3C(=O)NC(=S)NC3=O)o2)cc1,IC50,Large T antigen,10.5 µM (active)
Cc1ccc(-c2nc(C#N)c(NCCN3CCCCC3)o2)cc1,AC50,[5],4.4 µM (active)
CCC(C)N(C(=O)COC(=O)/C=C/c1ccc(O)c(OC)c1)C1CCS(=O)(=O)C1 (stereo unspecified),IC50,Large T antigen,11.4 µM (active)
